Measurements from article PMC9891171, “Inhibition studies with simple and complex (in)organic anions of the γ-carbonic anhydrase from Mammaliicoccus (Staphylococcus) sciuri, MscCAγ” (Journal of Enzyme Inhibition and Medicinal Chemistry, 2023).

Target: T1, MscCAγ (Mammaliicoccus sciuri, UniProt A0AB37HNM1)
T1 construct: gene OWO77_11715
T1 sequence (A0AB37HNM1 1-169): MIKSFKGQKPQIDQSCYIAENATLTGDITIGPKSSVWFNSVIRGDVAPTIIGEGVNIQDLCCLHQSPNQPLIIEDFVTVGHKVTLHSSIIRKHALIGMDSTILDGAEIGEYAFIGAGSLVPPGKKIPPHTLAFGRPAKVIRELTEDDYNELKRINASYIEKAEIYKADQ
Assay: stopped-flow CO2 hydration assay
Type: biochemical
Conditions: read-out: KI (mM)^a / McsCAγ

SMILES	Ki
CCN(CC)C(=S)S [N,N-diethyldithiocarbamate]	0.5 mM
O=S(=O)(O)NS(=O)(=O)O [iminodisulfonate]	13.7 mM
[O]=[Re](=[O])(=[O])[OH] [perrhenate]	4.4 mM
OB(O)c1ccccc1 [phenylboronic acid]	0.9 mM
O=P(O)(O)OP(=O)(O)O [pyrophosphate]	0.8 mM
N#C[SeH] [selenocyanide]	32.5 mM
NS(N)(=O)=O [sulfamide]	49.2 mM
NS(=O)(=O)O [sulphamic acid]	25.2 mM
S=C(S)S [trithiocarbonate]	0.07 mM
